Reference: PMC4050313, “Panaxadiol and Panaxatriol Derivatives as Anti-Hepatitis B Virus Inhibitors” (Natural Products and Bioprospecting, 2014)
pIC50: −log10 of the molar value.

Experiments:
HepG 2.2.15 cells = test: Cytotoxicity, modified MTT method; assay type: cell-based; conditions: 50 % cytotoxicity concentration in HepG 2.2.15 cells; means of two independent experiments
Protocol: (§1) Based on our previous description, inhibitory activity on HBV (HBsAg, HBeAg and HBV DNA) was evaluated. […] Cytotoxicity was assayed with a modified 3-(4,5-dimethylthiazole-2-yl)-2,5-diphenyltetrazolium bromide (MTT) method (Gibco Invitrogen, Carlsbad, CA, USA). The anti-HBV antigen secretion activities were determined by the enzyme linked immunosorbent assay (ELISA; Autobio Diagnostics Co., Ltd, China). A real-time PCR assay was applied to detect the inhibitory activity on HBV DNA replication.

HBeAg secretion = test: microbe, parasite or virus in culture; assay type: cell-based, Hepatitis B virus; conditions: HepG 2.2.15 cells; means of two independent experiments; read-out: HBeAg IC50
Protocol: as §1

HBsAg secretion = test: microbe, parasite or virus in culture; assay type: cell-based, Hepatitis B virus; conditions: for pIC50: HepG 2.2.15 cells, means of two independent experiments, read-out: HBsAg IC50; for growth of inhibition on HBsAg secretion: relative to inactive compound 8
Protocol: as §1

HBV DNA replication = test: Inhibition of HBV DNA replication, real-time PCR, HepG 2.2.15 cells; assay type: cell-based, Hepatitis B virus; conditions: for pIC50: HepG 2.2.15 cells, means of two independent experiments; for growth of inhibition on HBV DNA replication: relative to inactive compound 8
Protocol: as §1

[1] = test system: liver injury induced by D-galactosamine and lipopolysaccharide; design: method as in PMID 12880307; conditions: liver injury induced by D-galactosamine and lipopolysaccharide in mice; cited from earlier work

Structure (SMILES) | CC50 (HepG 2.2.15 cells) [µM] | pIC50 (HBeAg secretion) | pIC50 (HBsAg secretion) | pIC50 (HBV DNA replication) | growth of inhibition on HBsAg secretion (HBsAg secretion) [folds] | growth of inhibition on HBV DNA replication (HBV DNA replication) [folds] | hepatoprotective activity [1]
CC(=O)OC1CCC2(C)C(CCC3(C)C2CC(O)C2C(C4(C)CCCC(C)(C)O4)CCC23C)C1(C)C (centres unmarked) [Compound 1, 3-O-Acetly-panaxadiol] | > 2060 | – | – | – | – | – | –
CC1(C)CCCC(C)(C2CCC3(C)C2C(O)CC2C4(C)CCC(OC(=O)C5CCCC5)C(C)(C)C4CCC23C)O1 (centres unmarked) [Compound 2, 3-O-Cyclopentanecarbonyl panaxadiol] | > 2140 | < 2.67 | 2.90 | 3.29 | – | – | –
CC1(C)CCCC(C)(C2CCC3(C)C2C(O)CC2C4(C)CCC(OC(=O)c5ccco5)C(C)(C)C4CCC23C)O1 (centres unmarked) [Compound 3, 3-O-(2′-Furoyl) panaxadiol] | 1180 | 2.93 | 3.08 | 4.30 | – | – | –
CC1(C)CCCC(C)(C2CCC3(C)C2C(O)CC2C4(C)CCC(OC(=O)c5cccs5)C(C)(C)C4CCC23C)O1 (centres unmarked) [Compound 4, 3-O-(2′-Thenoyl) panaxadiol] | > 1910 | 4.74 | 4.51 | 4.78 | – | – | –
Cc1ccsc1C(=O)OC1CCC2(C)C(CCC3(C)C2CC(O)C2C(C4(C)CCCC(C)(C)O4)CCC23C)C1(C)C (centres unmarked) [Compound 5, 3-O-(3′-Methyl)-thenoyl panaxadiol] | > 2020 | < 2.69 | < 2.69 | < 3.30 | – | – | –
CC1(C)CCC[C@](C)([C@H]2CC[C@]3(C)[C@@H]2[C@H](O)C[C@@H]2[C@@]4(C)CC[C@H](OC(=O)c5sccc5Cl)C(C)(C)[C@@H]4CC[C@]23C)O1 [Compound 6, 3-O-(3′-Chloro)-thenoyl panaxadiol] | > 1640 | 3.55 | – | 4.36 | – | – | –
CC1(C)CCCC(C)(C2CCC3(C)C2C(O)CC2C4(C)CCC(OC(=O)c5cc6ccccc6s5)C(C)(C)C4CCC23C)O1 (centres unmarked) [Compound 7, 3-O-Benzothiophene-2-carboxyl panaxadiol] | > 1690 | – | – | – | – | – | –
CC1(C)CCC[C@](C)([C@H]2CC[C@]3(C)[C@@H]2[C@H](O)C[C@@H]2[C@@]4(C)CC[C@H](OC(=O)c5ccccc5)C(C)(C)[C@@H]4CC[C@]23C)O1 [Compound 8, 3-O-Benzoyl panaxadiol] | > 2000 | < 2.70 | < 2.70 | 3.30 | – | – | –
CC1(C)CCCC(C)(C2CCC3(C)C2C(O)CC2C4(C)CCC(OC(=O)c5ccccc5O)C(C)(C)C4CCC23C)O1 (centres unmarked) [Compound 9, 3-O-Salicyloyl panaxadiol] | 44.4 | – | 4.36 | 5.04 | 60 | 60 | –
CC1(C)CCC[C@](C)([C@H]2CC[C@]3(C)[C@@H]2[C@H](O)C[C@@H]2[C@@]4(C)CC[C@H](OC(=O)c5cc(O)c(O)c(O)c5)C(C)(C)[C@@H]4CC[C@]23C)O1 [Compound 10, 3-O-Galloyl panaxadiol] | 25.9 | < 2.84 | 4.34 | 5.14 | 60 | 60 | –
CC1(C)CCCC(C)(C2CCC3(C)C2C(O)CC2C4(C)CCC(OC(=O)c5cccnc5)C(C)(C)C4CCC23C)O1 (centres unmarked) [Compound 11, 3-O-Nicotinoyl panaxadiol] | 1150 | 2.94 | 2.94 | 3.93 | – | – | –
CCCCC(=O)O[C@H]1CC[C@]2(C)[C@H]3C[C@@H](O)[C@@H]4[C@@H]([C@@]5(C)CCCC(C)(C)O5)CC[C@@]4(C)[C@]3(C)CC[C@H]2C1(C)C [Compound 12, 3-O-Valeryl panaxadiol] | > 1580 | – | – | < 2.80 | – | – | –
CCOCC(=O)O[C@H]1CC[C@]2(C)[C@H]3C[C@@H](O)[C@@H]4[C@@H]([C@@]5(C)CCCC(C)(C)O5)CC[C@@]4(C)[C@]3(C)CC[C@H]2C1(C)C [Compound 13, 3-O-2′-Ethyoxyl-acetyl panaxadiol] | 1490 | < 2.63 | 3.23 | < 3.23 | – | – | –
CC1(C)CCCC(C)(C2CCC3(C)C2C(O)CC2C4(C)CCC(OC(=O)CCC(=O)O)C(C)(C)C4CCC23C)O1 (centres unmarked) [Compound 14, 3-O-Succinyl panaxadiol] | 179 | 3.77 | 3.70 | 4.78 | – | – | –
CC1(C)CCCC(C)(C2CCC3(C)C2C(O)CC2C4(C)CCC(OC(=O)CCCC(=O)O)C(C)(C)C4CCC23C)O1 (centres unmarked) [Compound 15, 3-O-Glutaryl panaxadiol] | 86.6 | 3.99 | 4.27 | 4.55 | – | – | –
CC1(C)CCCC(C)(C2CCC3(C)C2C(O)CC2C4(C)CCC(OC(=O)COCC(=O)O)C(C)(C)C4CCC23C)O1 (centres unmarked) [Compound 16, 3-O-Diglycolyl panaxadiol] | > 1700 | 3.05 | < 2.77 | 4.28 | – | – | –

Structure (SMILES) | CC50 (HepG 2.2.15 cells) [µM] | pIC50 (HBeAg secretion) | pIC50 (HBsAg secretion) | pIC50 (HBV DNA replication) | growth of inhibition on HBsAg secretion (HBsAg secretion) [folds] | growth of inhibition on HBV DNA replication (HBV DNA replication) [folds] | hepatoprotective activity [1]
CC(CC(=O)O)CC(=O)O[C@H]1CC[C@]2(C)[C@H]3C[C@@H](O)[C@@H]4[C@@H]([C@@]5(C)CCCC(C)(C)O5)CC[C@@]4(C)[C@]3(C)CC[C@H]2C1(C)C (some centres unmarked) [Compound 17, 3-O-(3′-Methyl) diglutaryl panaxadiol] | 934 | – | – | 4.06 | – | – | –
CC(C)(CC(=O)O)CC(=O)O[C@H]1CC[C@]2(C)[C@H]3C[C@@H](O)[C@@H]4[C@@H]([C@@]5(C)CCCC(C)(C)O5)CC[C@@]4(C)[C@]3(C)CC[C@H]2C1(C)C [Compound 18, 3-O-(3′,3′-Dimethyl) glutaryl panaxadiol] | 314 | – | 3.03 | 3.91 | – | – | –
CC1(C)CCCC(C)(C2CCC3(C)C2C(O)CC2C4(C)CCC(OC(=O)CC5(CC(=O)O)CCCC5)C(C)(C)C4CCC23C)O1 (centres unmarked) [Compound 19, 3-O-(3′,3′-tetramethylene)diglutaryl panaxadiol] | > 1730 | < 2.76 | < 2.76 | < 3.36 | – | – | –
CC(=O)OC1CC2(C)C(CC(O)C3C(C4(C)CCCC(C)(C)O4)CCC32C)C2(C)CCC(OC(C)=O)C(C)(C)C12 (centres unmarked) [Compound 20, 3,6-O-Diacetyl-panaxatriol] | > 2100 | < 2.68 | < 2.68 | 3.26 | – | – | –
CC1(C)CCCC(C)(C2CCC3(C)C2C(O)CC2C4(C)CCC(OC(=O)CCC(=O)O)C(C)(C)C4C(OC(=O)CCC(=O)O)CC23C)O1 (centres unmarked) [Compound 21, 3,6-O-Disuccinyl panaxatriol] | > 1940 | < 2.71 | < 2.71 | < 3.31 | – | – | –
CC1(C)CCCC(C)(C2CCC3(C)C2C(O)CC2C4(C)CCC(OC(=O)c5ccco5)C(C)(C)C4C(OC(=O)c4ccco4)CC23C)O1 (centres unmarked) [Compound 22, 3,6-O-Di(2′-furoyl)-panaxatriol] | 530 | < 2.89 | < 2.89 | < 3.49 | – | – | –
CC1(C)CCCC(C)(C2CCC3(C)C2C(O)CC2C4(C)CCC(OC(=O)c5cccs5)C(C)(C)C4C(OC(=O)c4cccs4)CC23C)O1 (centres unmarked) [Compound 23, 3,6-O-Di(2′-thenoyl)-panaxatriol] | > 2090 | – | – | < 2.68 | – | – | –
CC1(C)CCCC(C)(C2CCC3(C)C2C(O)CC2C4(C)CCC(OC(=O)c5cccnc5)C(C)(C)C4C(OC(=O)c4cccnc4)CC23C)O1 (centres unmarked) [Compound 24, 3,6-O-Dinicotinoyl-panaxatriol] | 1650 | 2.97 | 2.78 | 3.39 | – | – | –
COCC(=O)OC1CC2(C)C(CC(O)C3C(C4(C)CCCC(C)(C)O4)CCC32C)C2(C)CCC(OC(=O)COC)C(C)(C)C12 (centres unmarked) [Compound 25, 3,6-O-Di(2′-methoxyl)acetoxyl-panaxatriol] | > 1500 | 3.01 | < 2.82 | < 3.43 | – | – | –
CC(=O)OC1CCC2(C)C(CCC3(C)C2CC(=O)C2C(C4(C)CCCC(C)(C)O4)CCC23C)C1(C)C [Compound 26, (20R)-20,25-Epoxy-3-O-acetoyl-dammaran-12-dione] | > 2280 | – | – | – | – | – | –
CC1(C)CCCC(C)(C2CCC3(C)C2C(=O)CC2C4(C)CCC(OC(=O)c5cccs5)C(C)(C)C4CCC23C)O1 [Compound 27, (20R)-20,25-Epoxy-3-O-(2′-thenoyl)-dammaran-12-dione] | > 2160 | – | – | – | – | – | –
CC1(C)CCCC(C)(C2CCC3(C)C2C(=O)CC2C4(C)CCC(OC(=O)CCC(=O)O)C(C)(C)C4CCC23C)O1 [Compound 28, (20R)-20,25-Epoxy-3-O-succinyl-dammaran-12-dione] | > 1940 | < 2.71 | < 2.71 | < 3.31 | – | – | –
CC(C)=CCC[C@](C)(O[C@@H]1O[C@H](CO[C@@H]2OC[C@@H](O)[C@H](O)[C@H]2O)[C@@H](O)[C@H](O)[C@H]1O)[C@H]1CC[C@]2(C)[C@@H]1[C@H](O)C[C@@H]1[C@@]3(C)CC[C@H](O[C@@H]4O[C@H](CO)[C@@H](O)[C@H](O)[C@H]4O[C@@H]4O[C@H](CO)[C@@H](O)[C@H](O)[C@H]4O)C(C)(C)[C@@H]3CC[C@]12C [Rb3, ginsenoside Rb3] | – | – | – | – | – | – | showed hepatoprotective activity
CC(C)=CCC[C@](C)(O[C@@H]1O[C@H](CO[C@@H]2O[C@@H](CO)[C@H](O)[C@H]2O)[C@@H](O)[C@H](O)[C@H]1O)[C@H]1CC[C@]2(C)[C@@H]1[C@H](O)C[C@@H]1[C@@]3(C)CC[C@H](O[C@@H]4O[C@H](CO)[C@@H](O)[C@H](O)[C@H]4O[C@@H]4O[C@H](CO)[C@@H](O)[C@H](O)[C@H]4O)C(C)(C)[C@@H]3CC[C@]12C [Rc, ginsenoside Rc] | – | – | – | – | – | – | showed hepatoprotective activity
O=C(O)c1cccs1 [TA, thiophenezoic acid, reference compound] | – | – | – | 2.75 | – | – | –
